For eight compounds, Kd results are on record in patent US12605451B2, “Targeted plasma protein degradation” (Novartis AG, priority 2020, dated 2026).

The structures appear in SMILES notation. pKd: −log10 of the molar value. Like-named read-outs stand apart in the source and are kept apart here. Positions of bridges follow the written chain, without caps; N, C: chain ends. Non-standard residues stand in square brackets, D forms with d. Residues, ends and D or L forms follow the SMILES beside them. *: point of attachment. X4 = CC(=O)N[C@H]1[C@H](OCCCCC(=O)NCCCNCC(=O)CCOCC(COCCC(=O)NCCCNC(=O)CCCCO[C@@H]2O[C@H](CO)[C@H](O)[C@H](O)[C@H]2NC(C)=O)(COCCC(=O)NCCCNC(=O)CCCCO[C@@H]2O[C@H](CO)[C@H](O)[C@H](O)[C@H]2NC(C)=O)NC(=O)CCCCCCC(=O)*)O[C@H](CO)[C@H](O)[C@@H]1O; X1 = CC(=O)N[C@H]1[C@H]2OC[C@](COCCOCCOCCOCCn3cc(COCCNC(=O)CCOCCOCCOCCOCCC(=O)*)nn3)(O2)[C@H](O)[C@@H]1O; Bip = N[C@@H](Cc1ccc(-c2ccccc2)cc1)C(=O)O; Levulinoyl = CC(=O)CCC(=O)*; NMeA = CN[C@@H](C)C(=O)O

In one test the target is T1, human PCSK9 (Homo sapiens, UniProt Q8NBP7).
T1 construct: Purified recombinant full length human PCSK9 with C-terminal biotinylated Avitag
T1 sequence (Q8NBP7 153-692): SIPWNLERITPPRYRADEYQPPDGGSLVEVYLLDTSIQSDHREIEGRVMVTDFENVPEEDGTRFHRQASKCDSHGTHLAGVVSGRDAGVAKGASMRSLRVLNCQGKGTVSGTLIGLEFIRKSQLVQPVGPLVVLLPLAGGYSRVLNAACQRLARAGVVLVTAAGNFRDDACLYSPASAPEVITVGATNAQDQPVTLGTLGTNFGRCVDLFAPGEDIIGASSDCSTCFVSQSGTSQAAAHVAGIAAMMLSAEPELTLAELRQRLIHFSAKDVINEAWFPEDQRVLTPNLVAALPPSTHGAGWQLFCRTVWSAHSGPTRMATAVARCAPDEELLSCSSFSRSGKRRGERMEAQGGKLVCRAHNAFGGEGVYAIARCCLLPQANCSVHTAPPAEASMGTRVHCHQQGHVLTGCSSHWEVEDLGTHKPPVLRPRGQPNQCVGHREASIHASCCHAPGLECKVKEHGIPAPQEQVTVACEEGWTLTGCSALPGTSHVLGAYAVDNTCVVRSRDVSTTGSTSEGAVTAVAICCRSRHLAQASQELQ
In words: SPR binding to biotinylated human PCSK9 (Proteon XPR36). Here is the method: SPR was used to obtain the binding data for PCSK9 receptor ligand compound (C5), either alone or as part of the bifunctional compounds (BFC1), respectively.
SPR Binding experiments were performed on a Proteon XPR36 instrument (Bio-Rad Laboratories). Purified recombinant full length human PCSK9 with C-terminal biotinylated Avitag was used for the assay. Biotinylated human PCSK9 was incubated with fivefold molar excess of bifunctional compound (BFC1) or compound (C5), and immobilized onto a Neutravidin coated sensor chip. (NLC chip, Bio-Rad Laboratories, Inc). After conditioning the chip by injecting running buffer (20 mM Tris pH7.5, 300 mM NaCl, 25 mM CaCl2, 2 mM betamercaptoethanol, 2% DMSO and 0.05% Tween-20) at a flow rate of 0.1 mL/min for 240 s, PCSK9 protein was injected at a protein concentration of 0.02 mg/ml in running buffer with fivefold molar excess of bifunctional compound and a flow rate of 0.03 mL/min followed by 4 washes with running buffer with 1 μM of bifunctional compound (0.1 mL/min for 60 seconds each).
To perform sandwich SPR binding assays, His-ASGPR1 (62-291) protein stocks were diluted with running buffer to a desired concentration. ASGPR was injected at a flow rate of 0.1 mL/min for 240 s and allowed to dissociate for 1200 s. Sensorgrams were recorded for association and dissociation phases. All sensorgrams were processed by subtracting the binding response recorded from a blank control surfaces (or interspot surfaces), followed by subtracting buffer blank injections from the reaction surface. Data were processed with the ProteOn Manager software (version 3.1.0.6, Bio-Rad, Inc.).
Background: Surface plasmon resonance follows binding to a sensor surface in real time, without labels.

In another test the target is T2, human ASGPR1 (Homo sapiens, UniProt P07306).
T2 construct: Recombinant extracellular domain of human ASGPR1 with N-terminal biotinylated Avitag
T2 sequence (P07306 62-291 limits assumed): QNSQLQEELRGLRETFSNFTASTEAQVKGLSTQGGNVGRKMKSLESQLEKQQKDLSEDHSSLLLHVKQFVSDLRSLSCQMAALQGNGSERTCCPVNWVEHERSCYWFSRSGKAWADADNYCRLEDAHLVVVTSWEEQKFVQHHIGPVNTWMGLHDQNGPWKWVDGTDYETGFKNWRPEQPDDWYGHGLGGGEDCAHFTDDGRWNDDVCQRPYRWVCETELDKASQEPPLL
In words: ASGPR1 SPR direct binding (Biacore, SA chip). Here is the method: SPR was used to obtain the binding data for ASGP receptor ligand compound (int-CC2), either alone or as part of the bifunctional compounds (BFC-13), (BFC-15) and (BFC16).
(§1) ASGPR1 SPR experiments were performed on either Biacore T200 or Biacore 8K. The assay was optimized for Biacore (Streptavidin) SA chip in running buffer consisting of 20 mM HEPES, 300 mM NaCl, 2 mM CaCl2, 0.01% tween-20, 2% DMSO, pH 7.4. Recombinant extracellular domain of human ASGPR1 with N-terminal biotinylated Avitag was diluted to 20 μg/mL in running buffer, and immobilized onto SA chip after it was preconditioned with at least four 60-second injections at 30 uL/min of 1 M NaCl/40 mM NaOH solution. Protein immobilization level varied from 500 RU to 3500 RU dependent on analytes' molecular weight, for targeted Rmax of 30 RUs. Direct binding of analytes to ASGPR1 was observed when a dose response titration of analytes in 2% DMSO was flown over the immobilized protein. Data analysis was done on either Biacore T200 Evaluation Software or Biacore Insight Evaluation Software.
SPR was used to obtain the binding data for ASGP receptor ligand compounds (int-CC2), either alone or as part of the bifunctional compounds (BFC1).
as §1, with “Biacore” for “Biacore (Streptavidin)”

[1] abbreviates: Bifunctional Compound, SPR, read-out: PCSK9 KD.
The mark [2] stands for this setting: Bifunctional Compound (PCSK9 series), Table 9, read-out: ASGPR binding KD.
Where [3] appears, read: Free Ligand, SPR, read-out: PCSK9 KD.

Regarding `CC(=O)N[C@H]1[C@H](OCCCCC(=O)NCCCNCC(=O)CCOCC(COCCC(=O)NCCCNC(=O)CCCCO[C@@H]2O[C@H](CO)[C@H](O)[C@H](O)[C@H]2NC(C)=O)(COCCC(=O)NCCCNC(=O)CCCCO[C@@H]2O[C@H](CO)[C@H](O)[C@H](O)[C@H]2NC(C)=O)NC(=O)CCCCCCC(=O)NCCCC[C@H](NC(=O)CNC(=O)[C@@H]2CSCC(=O)N[C@@H](Cc3ccccc3)C(=O)N[C@@H](C(C)C)C(=O)N3CCC[C@H]3C(=O)N[C@@H]([C@@H](C)O)C(=O)N[C@@H]([C@@H](C)O)C(=O)N[C@@H](Cc3ccc(-c4ccccc4)cc3)C(=O)N(C)[C@@H](C)C(=O)N[C@@H](Cc3ccc(-c4ccccc4)cc3)C(=O)N(C)[C@@H](C)C(=O)N[C@@H](CCC(=O)O)C(=O)N[C@@H](C)C(=O)N3CCC[C@H]3C(=O)N2)C(N)=O)O[C@H](CO)[C@H](O)[C@@H]1O` [BFC-1] ({CH2CO}-FVPTT[Bip][NMeA][Bip][NMeA]EAPCGK(X4)-NH2; thioether N-13), the pKd (usually the negative decadic logarithm of the Kd, by convention in mol/L) on human PCSK9 (setting [1]) was 8.41; at human ASGPR1 (setting [2]), 9.49.
In turn, `CC(C)[C@@H]1NC(=O)[C@H](Cc2ccccc2)NC(=O)CSC[C@@H](C(=O)NCC(=O)N[C@@H](CCCCNC(=O)OC[C@@H]2[C@@H]3CCc4c(nnn4CCCCCCO[C@H](O[C@@H](/C=N/OCC(=O)NNC(=O)CCCO[C@@H]4O[C@H](CO[C@H]5O[C@H](CO[C@H]6O[C@H](CO)[C@@H](O)[C@H](O)[C@@H]6O[C@H]6O[C@H](COP(=O)(O)O)[C@@H](O)[C@H](O)[C@@H]6O)[C@@H](O)[C@H](O)[C@@H]5O)[C@@H](O)[C@H](O[C@H]5O[C@H](CO)[C@@H](O)[C@H](O)[C@@H]5O[C@H]5O[C@H](COP(=O)(O)O)[C@@H](O)[C@H](O)[C@@H]5O)[C@@H]4O)CO)[C@H](O)/C=N\OCC(=O)NNC(=O)CCCO[C@@H]4O[C@H](CO[C@H]5O[C@H](CO[C@H]6O[C@H](CO)[C@@H](O)[C@H](O)[C@@H]6O[C@H]6O[C@H](COP(=O)(O)O)[C@@H](O)[C@H](O)[C@@H]6O)[C@@H](O)[C@H](O)[C@@H]5O)[C@@H](O)[C@H](O[C@H]5O[C@H](CO)[C@@H](O)[C@H](O)[C@@H]5O[C@H]5O[C@H](COP(=O)(O)O)[C@@H](O)[C@H](O)[C@@H]5O)[C@@H]4O)CC[C@@H]32)C(N)=O)NC(=O)[C@@H]2CCCN2C(=O)[C@H](C)NC(=O)[C@H](CCC(=O)O)NC(=O)[C@H](C)N(C)C(=O)[C@H](Cc2ccc(-c3ccccc3)cc2)NC(=O)[C@H](C)N(C)C(=O)[C@H](Cc2ccc(-c3ccccc3)cc2)NC(=O)[C@H]([C@@H](C)O)NC(=O)[C@H]([C@@H](C)O)NC(=O)[C@@H]2CCCN2C1=O` [BFC-3] gave a pKd on human PCSK9 of 8.11.
Take `CC(=O)N[C@H]1[C@H]2OC[C@](COCCOCCOCCOCCn3cc(COCCNC(=O)CCOCCOCCOCCOCCC(=O)NCCCC[C@H](NC(=O)CNC(=O)[C@@H]4CSCC(=O)N[C@@H](Cc5ccccc5)C(=O)N[C@@H](C(C)C)C(=O)N5CCC[C@H]5C(=O)N[C@@H]([C@@H](C)O)C(=O)N[C@@H]([C@@H](C)O)C(=O)N[C@@H](Cc5ccc(-c6ccccc6)cc5)C(=O)N(C)[C@@H](C)C(=O)N[C@@H](Cc5ccc(-c6ccccc6)cc5)C(=O)N(C)[C@@H](C)C(=O)N[C@@H](CCC(=O)O)C(=O)N[C@@H](C)C(=O)N5CCC[C@H]5C(=O)N4)C(N)=O)nn3)(O2)[C@H](O)[C@@H]1O` [BFC-5] ({CH2CO}-FVPTT[Bip][NMeA][Bip][NMeA]EAPCGK(X1)-NH2; thioether N-13): the pKd on human PCSK9 (setting [1]) was 8.34; at human ASGPR1 (setting [2]), 7.05.
Consider `CC(=O)N[C@H]1[C@H]2OC[C@](COCCOCCOCCOCCn3cc(COCC(COCc4cn(CCOCCOCCOCCOC[C@@]56CO[C@@H](O5)[C@H](NC(C)=O)[C@@H](O)[C@H]6O)nn4)(COCc4cn(CCOCCOCCOCCOC[C@@]56CO[C@@H](O5)[C@H](NC(C)=O)[C@@H](O)[C@H]6O)nn4)NC(=O)CCOCCOCCOCCOCCC(=O)NCCCC[C@H](NC(=O)CNC(=O)[C@@H]4CSCC(=O)N[C@@H](Cc5ccccc5)C(=O)N[C@@H](C(C)C)C(=O)N5CCC[C@H]5C(=O)N[C@@H]([C@@H](C)O)C(=O)N[C@@H]([C@@H](C)O)C(=O)N[C@@H](Cc5ccc(-c6ccccc6)cc5)C(=O)N(C)[C@@H](C)C(=O)N[C@@H](Cc5ccc(-c6ccccc6)cc5)C(=O)N(C)[C@@H](C)C(=O)N[C@@H](CCC(=O)O)C(=O)N[C@@H](C)C(=O)N5CCC[C@H]5C(=O)N4)C(N)=O)nn3)(O2)[C@H](O)[C@@H]1O` [BFC-6], for which the pKd on human PCSK9 (setting [1]) was 8.24; on human ASGPR1 (setting [2]) it was > 9.00.
Consider `COC[C@@H]1NC(=O)[C@H](CCCNC(=O)CCOCCOCCOCCOCCC(=O)NCCOCc2cn(CCOCCOCCOCCOC[C@@]34CO[C@@H](O3)[C@H](NC(C)=O)[C@@H](O)[C@H]4O)nn2)N(Cc2ccc(Cl)cc2Oc2ccc(-c3cnc(CN(C)C)n3C)cc2)C(=O)C[C@@H](Cc2ccccc2)C(=O)N(C)[C@H]2CCCC[C@@H]2NC(=O)C[C@H](Cc2ccc(Cl)cc2)N(C)C1=O` [BFC-12], for which, at human ASGPR1 (setting [2]), the pKd was 7.66.
Regarding `CC(=O)CCC(=O)NCCCC[C@H](NC(=O)CNC(=O)[C@@H]1CSCC(=O)N[C@@H](Cc2ccccc2)C(=O)N[C@@H](C(C)C)C(=O)N2CCC[C@H]2C(=O)N[C@@H]([C@@H](C)O)C(=O)N[C@@H]([C@@H](C)O)C(=O)N[C@@H](Cc2ccc(-c3ccccc3)cc2)C(=O)N(C)[C@@H](C)C(=O)N[C@@H](Cc2ccc(-c3ccccc3)cc2)C(=O)N(C)[C@@H](C)C(=O)N[C@@H](CCC(=O)O)C(=O)N[C@@H](C)C(=O)N2CCC[C@H]2C(=O)N1)C(N)=O` [C5] ({CH2CO}-FVPTT[Bip][NMeA][Bip][NMeA]EAPCGK(Levulinoyl)-NH2; thioether N-13), the negative-log Kd (pKd) at human PCSK9 (setting [3]) was 8.92.
The same measure, in the same setting: as for `COC[C@@H]1NC(=O)[C@H](CCCN)N(Cc2ccc(Cl)cc2Oc2ccc(-c3cnc(CN(C)C)n3C)cc2)C(=O)C[C@@H](Cc2ccccc2)C(=O)N(C)[C@H]2CCCC[C@@H]2NC(=O)C[C@H](Cc2ccc(Cl)cc2)N(C)C1=O` [C9, (4S,7S,10S,14R,16aS,20aS)-10-(3-aminopropyl)-14-benzyl-11-(4-chloro-2-(4-(2-((dimethylamino)methyl)-1-methyl-1H-imidazol-5-yl)phenoxy)benzyl)-4-(4-chlorobenzyl)-7-(methoxymethyl)-5,16-dimethylhexadecahydrobenzo[1][1,4,7,11,14]pentaazacyclooctadecine-2,6,9,12,15 (3H)-pentaone], the figure is > 9.00.
Consider `CC(=O)N[C@H]1[C@H](OCCCCC(=O)NCCCNC(=O)CCOCC(N)(COCCC(=O)NCCCNC(=O)CCCCOC2O[C@H](CO)[C@H](O)[C@H](O)[C@H]2NC(C)=O)COCCC(=O)NCCCNC(=O)CCCCO[C@@H]2O[C@H](CO)[C@H](O)[C@H](O)[C@H]2NC(C)=O)O[C@H](CO)[C@H](O)[C@@H]1O` (stereo partly drawn) [int-CC2, N,N′-(10-((3-((3-(5-(((3R,4R,5R,6R)-3-acetamido-4,5-dihydroxy-6-(hydroxymethyl)tetrahydro-2H-pyran-2-yl)oxy)pentanamido)propyl)amino)-3-oxopropoxy)methyl)-10-amino-5,15-dioxo-8,12-dioxa-4,16-diazanonadecane-1,19-diyl)bis(5-(((2R,3R,4R,5R,6R)-3-acetamido-4,5-dihydroxy-6-(hydroxymethyl)tetrahydro-2H-pyran-2-yl)oxy)pentanamide)], for which, at human ASGPR1 (Free Ligand, Table 7, read-out: ASGPR KD), the pKd was 9.05.
